According to PubChem BioAssay (NCI):
Several values for one entry are separate records, joined by “and”; a condition that tells them apart may be missing. Equal values may be shown once.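 Step 1: Grow cells in 96-well plates. Step 2: Expose to compound for 48 hours at 5 concentrations. Step 3: Interpolate endpoints linearly; if unreached, use highest concentration. Abbreviation: GI50, concentration required for 50% inhibition of growth. TGI: total growth inhibition.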

Legend:
Assay in all cases: NCI-60 cell line screen, 48 h
SF-539 CNS = system: SF-539 CNS
A498 renal = system: A498 renal
HCC-2998 colon = system: HCC-2998 colon
CAKI-1 renal = system: CAKI-1 renal
HOP-92 NSCLC = system: HOP-92 NSCLC
BT-549 breast = system: BT-549 breast
NCI/ADR-RES ovarian = system: NCI/ADR-RES ovarian
M14 melanoma = system: M14 melanoma
NCI-H23 lung = system: NCI-H23 lung
UACC-62 melanoma = system: UACC-62 melanoma

SMILES | TGI (SF-539 CNS) | TGI (A498 renal) | TGI (HCC-2998 colon) | TGI (CAKI-1 renal) | TGI (HOP-92 NSCLC) | TGI (BT-549 breast) | TGI (NCI/ADR-RES ovarian) | TGI (M14 melanoma) | TGI (NCI-H23 lung) | GI50 (SF-539 CNS) | GI50 (A498 renal) | GI50 (HCC-2998 colon) | GI50 (CAKI-1 renal) | GI50 (UACC-62 melanoma) | TGI (UACC-62 melanoma) | GI50 (HOP-92 NSCLC) | GI50 (BT-549 breast) | GI50 (NCI/ADR-RES ovarian) | GI50 (M14 melanoma) | GI50 (NCI-H23 lung) [µM]
CC(/C=C/C=C/C=C/C=C/C=C/C(O)=C1/C(=O)C(CCC(=O)O)N(C)C1=O)=C\C(C)C(OC1CC(O)C(O)C(C)O1)C(C)C (configuration not stated) | 6.3 µM | 10.7 µM | 7.53 µM | 12.6 µM | 8.66 µM | 7.1 µM | 50.2 µM | 15.2 µM | 9.75 µM |  |  |  |  |  |  |  |  |  |  | 
CCCCC(SC(=S)N(CC)CC)C(=O)Nc1nc(CC(=O)OCC)cs1 (configuration not stated) | > 100 µM | > 100 µM | > 100 µM | > 100 µM | > 100 µM | > 100 µM | > 100 µM | > 100 µM |  | 34.6 µM | 54.3 µM | 59.3 µM | 91.7 µM | 29.8 µM | > 100 µM | 53.1 µM | 39 µM | 42.9 µM | 33.7 µM | 
COc1cc(C2=Nc3c/c(=C\c4c(O)[nH]c5ccc(Cl)cc45)ccc3=N2)cc(OC)c1OC | 15.9 µM | > 100 µM | 21.8 µM | 27.8 µM | 6.35 µM | 9.94 µM | 54.7 µM | 3.83 µM | 7.61 µM | 4 µM | 29.4 µM | 4.44 µM | 5.5 µM | 1.94 µM | 7.97 µM | 0.444 µM | 2.51 µM | 5.96 µM | 1.71 µM | 1.96
Oc1ccc(Cl)cc1Cc1cc(Cl)cc(Cc2cc(Cl)ccc2O)c1O | 4.37 µM | 4.28 µM | 2.79 µM | 13 µM | 5.94 µM | 9.61 µM | 6.82 µM | 6.71 µM | 6.62 µM |  |  |  |  |  | 10.1 µM |  |  |  |  | 
CN(C)c1cc2c(Nc3ccc4nc(Cc5ccccc5)[nH]c4c3)ncnc2cn1 | > 25 µM | > 25 µM | > 25 µM | > 25 µM | > 25 µM | > 25 µM | > 25 µM | > 25 µM | > 25 µM | 14.4 µM | > 13.9 µM | > 25 µM | 9.82 µM | > 18.3 µM | > 25 µM | > 25 µM | > 18.2 µM | > 25 µM | > 25 µM | > 23.9
Nc1nn(C(=O)Nc2ccc(Cc3ccccc3)cc2)c2ccc(Cl)cc12 | 7.66 µM | 52.8 µM | 1.48 µM | > 100 µM | 42 µM | > 66.3 µM | 51.6 µM | 11.7 µM | > 82.7 µM | 1.29 µM | 15.9 µM | 0.211 µM | 0.212 µM | 0.0397 µM | > 100 µM | 13.4 µM | 12.4 µM | 7.89 µM | 0.0666 µM | 5.72
O=C(O[C@H]1CN[C@H](C#Cc2cc3ncnc(Nc4ccc(Cc5ccccc5)cc4)c3s2)C1)N1CCOCC1 | 11.7 µM | 6.53 µM | 9.1 µM | > 24.1 µM | 11.5 µM | 10.6 µM | > 23.8 µM | 18.9 µM | 24.9 µM | 4.42 µM | 0.768 µM | 4.2 µM | 2.08 µM | 6.25 µM | > 23.5 µM | 1.7 µM | 4.74 µM | 5.72 µM | 6.08 µM | 6.35
Nc1ccccc1C#Cc1ccccc1C#Cc1ccccc1N | 21.1 µM | 19.8 µM | 41 µM | 18.5 µM | 15.6 µM | 24.7 µM | 73.3 µM | 24.5 µM | 70.8 µM | 5.4 µM | 6 µM | 14 µM | 4.41 µM | 6.93 µM | 21.2 µM | 3.62 µM | 5.41 µM | 13 µM | 6.62 µM | 19.3
CCN1CCN(CCNc2nccc(-c3c(-c4cccc(O)c4)nc4sccn34)n2)S1(=O)=O | 32.5 µM and 78.5 µM | 32.5 µM and 25.6 µM | 32.5 µM and > 100 µM | 28.5 µM and > 100 µM | 32.5 µM and 69.9 µM | 32.5 µM and 76.6 µM | 32.5 µM and 86.1 µM | 19.8 µM and 10.8 µM | 32.5 µM and 51.9 µM | 28.6 µM and 21.3 µM | 16.6 µM and 3.97 µM | 32.1 µM and 29.4 µM | 7.33 µM and 3 µM | 0.105 µM and 0.0766 µM | 6.11 µM and 4.62 µM | 6.2 µM and 0.671 µM | 20.4 µM and 6.31 µM | 23.3 µM and 26.5 µM | 0.168 µM and 0.142 µM | 12.4
O=C1OCC2=C1C(c1cccc([N+](=O)[O-])c1)c1cc3c(cc1N2CCO)CCC3 (configuration not stated) | 0.38 µM | 0.376 µM | 9.58 µM | > 38 µM | > 50 µM | 5.32 µM | > 11.3 µM | 17.2 µM | > 50 µM | 0.11 µM | 0.0684 µM | 0.188 µM | 0.083 µM | 0.0298 µM | > 24.8 µM | 2.66 µM | 0.177 µM | 0.146 µM | 0.112 µM | 0.335
COc1ccc(Nc2nc(NCc3ccccc3)c3ccccc3n2)cc1 | 23.9 µM | 13.9 µM | 7.6 µM | 14 µM | 12.6 µM | 18.2 µM | 23.1 µM | 5.73 µM | 13.7 µM | 9.52 µM | 2.44 µM | 2.9 µM | 3.69 µM | 10.1 µM | 23.3 µM | 2.59 µM | 4.57 µM | 4.14 µM | 2.3 µM | 3.02
C[C@@]12CCC[C@@](C)(C(=O)O)C1CC[C@]13C=C(CO)[C@](O)(CCC12)C3 (some centres not stated) | > 100 µM | > 100 µM | > 100 µM | > 100 µM | > 100 µM | > 100 µM | > 100 µM | > 100 µM | > 100 µM | > 100 µM | > 100 µM | > 100 µM | > 100 µM | > 100 µM | > 100 µM | > 100 µM | > 100 µM | > 100 µM | > 100 µM | > 100
CCCCN(CCCC)c1cc(C(=O)CCCCCN)c2ccccc2n1 | 3.41 µM | 19.2 µM | 3.21 µM | 4.38 µM | 6.32 µM | 23.4 µM | 3.61 µM | 3.29 µM | 3.8 µM | 1.95 µM | 2.85 µM | 1.76 µM | 1.86 µM | 1.66 µM | 3.07 µM | 2.51 µM | 8.57 µM | 1.78 µM | 1.83 µM | 1.89
